Values after ≈ are worked out from the molar mass of the structure shown.
Tests used:
E.c. = test: Zone of inhibition, silicone rubber film discs on inoculated agar; format: cell-based, Echerichia coli; conditions: for Zones: Silicone; for Zone of Inhibition: silicone rubber film
Excerpt: (§1) The films were cut into 1.25 cm discs and placed in agar plates inoculated with Staphlococcus aureus (S.a) or Echerichia coli (E.c.).
(§2) The films were cut into discs and tested as in example one against S.a. and E.c.

Aspergillis niger (A.n.) [1] = test: Growth of fungus on polyvinyl chloride film; format: cell-based; design: key: 0: zero (no growth); 5: five (heavy growth); conditions: PVC film
Procedure: (§3) In a two-liter, three-necked, round-bottom, flask equipped with a mechanical stirrer was placed 100 g of polyvinyl chloride, 590 g of reagent grade tetrahydrofuran, and 40.0 g of dioctylphthalate. This was stirred with gentle heating (35°-40° C.) for two hours to completely dissolve the polyvinyl chloride. Then, a barium/calcium salt of a fatty acid (3.5 g), a phosphite chelating agent (1.5 g), stearic Acid (0.25 g) and epoxidized soy bean oil (7.5 g), were mixed with 21 g of tetrahydrofuran and added to the polyvinyl chloride solution. After stirring at room temperature for 30 minutes, the solution was ready for use.
(§4) Films containing the isothiazolones were cast by first preparing a 0.5 weight percent polyvinyl chloride solution by adding the isothiazolone to the polyvinyl chloride solution. Then, portions of the 0.5% solution were diluted to 0.1 and 0.05%. The films were drawn down on 12"×12" glass plates using a 50 mil-3" wide coating bar and the films were allowed to air dry for 48 hours.
(§5) In addition to zones of inhibition, the films were observed by growth of fungus on the film and rated from zero (no growth) to five (heavy growth).

[2] = tested on: Aerobasidium pullulans (A.p); test: Growth of fungus on polyvinyl chloride film; format: cell-based; design: key: 0: zero (no growth); 5: five (heavy growth); conditions: PVC film
Procedure: as §3, §4, §5

Staphylococcus aureus = test: Minimum inhibitory concentration, bacteriostatic activity; format: cell-based; conditions: Table III: Active Ingredient MIC
Echerichia coli (E.c.) = test: Zone of inhibition, polyvinyl chloride film discs on inoculated agar; format: cell-based; conditions: PVC film
Procedure: as §3, §4, §1

[3] = tested on: Staphlococcus aureus (S.a); test: as above; format: cell-based; conditions: PVC film
Procedure: as §3, §4, §1

[4] = tested on: Pseudomonas aeruginosa (P.a.); test: Zone of inhibition, polyvinyl chloride (vinyl) film discs; format: cell-based; conditions: vinyl film
Procedure: as §3, §1
Discs were tested against Pseudomonas aeruginosa (P.a.). The 1.0% films gave a slight zone of inhibition while the 5.0% film gave a 1 mm zone of inhibition.

[5] = tested on: resistant bacterial colonies; conditions: with time
Candida albicans (yeast) = test: Minimum inhibitory concentration, fungistatic activity; format: cell-based; conditions: Table III: Active Ingredient MIC
Aspergillus niger = test: as above; format: cell-based; conditions: Table III: Active Ingredient MIC
Escherichia coli = test: Minimum inhibitory concentration, bacteriostatic activity; format: cell-based; conditions: Table III: Active Ingredient MIC
[6] = tested on: Aerobasidium pullulans (A.p); test: Zone of inhibition, polyvinyl chloride film; format: cell-based; conditions: PVC film
S.a. = test: Zone of inhibition, silicone rubber film discs on inoculated agar; format: cell-based, Staphlococcus aureus; conditions: for Zones: Silicone; for Zones / Zone of Inhibition: S.a.; for Zone of Inhibition: silicone rubber film
Excerpt: as §1, §2

fungi = test: Observation of incubated plates (antibiotics vs Compound 1): fungal overgrowth; format: cell-based; conditions: as the plates were allowed to incubate
[7] = tested on: sessile colonization by bacteria or fungi; test: Implanted silicone rubber urinary catheters in dogs, growth after one week; format: in vivo; conditions: silicone catheter; for Agar culture / Visual Examination: one week
Excerpt: These are inserted into large male dogs held in restraining harnesses. The catheters are examined for visible growth and cultured onto agar over a period of one week.

Aureobasidium pullulans = test: Minimum inhibitory concentration, fungistatic activity; format: cell-based; conditions: Table III: Active Ingredient MIC
Aspergillis niger (A.n.) [8] = test: Zone of inhibition, polyvinyl chloride film; format: cell-based; conditions: PVC film
Pseudomonas aeruginosa = test: Minimum inhibitory concentration, bacteriostatic activity; format: cell-based; conditions: Table III: Active Ingredient MIC
Solubility in H2O = format: physicochemical; conditions: water
P.a. = test: Zone of inhibition, silicone film; format: cell-based, Pseudomonas aeruginosa
sessile colonization = test: Implanted polyvinyl chloride coated pacemakers in dogs, growth after one month; format: in vivo; conditions: for Agar culture / Visual Observation: PVC-coated pacemaker, one month
Excerpt: The devices are inserted into dogs and allowed to remain without electrical activation for a period of one month. The devices are then removed and examined visually and by agar cultures from the surface.

For `O=c1c(Cl)c(Cl)sn1C1CCCCC1` [Compound 1, 4,5-Dichloro-N--cyclohexyl-isothiazolin-3-one], the Zones (E.c.; 1.0%) was 16.3 mm, the Zones (E.c.; 5.0%) was 16.3 mm and the Zones (E.c.; .20%) was 14.3 mm. The “Zone of Inhibition” value (E.c.; Conc. 10) was 0.1 mm, the “Zone of Inhibition” value (E.c.; Conc. 100) was 5.5 mm and the “Zone of Inhibition” value (E.c.; Conc. 1000) was 13.0 mm. The “Growth on Film” value (Aspergillis niger (A.n.) [1]; 0.05%) was 1, the “Growth on Film” value (Aspergillis niger (A.n.) [1]; 0.1%) was 0 and the “Growth on Film” value (Aspergillis niger (A.n.) [1]; 0.5%) was 0. For the same molecule, the “Growth on Film” value ([2]; 0.05%) was 0, the “Growth on Film” value ([2]; 0.1%) was 0 and the “Growth on Film” value ([2]; 0.5%) was 0. The MIC (Staphylococcus aureus) was 10 µg/mL (≈ 39.7 µM), the “Zone of Inhibition” value (Echerichia coli (E.c.); 0.05%) was 0.8 mm and the “Zone of Inhibition” value (Echerichia coli (E.c.); 0.1%) was 1.8 mm. The “Zone of Inhibition” value (Echerichia coli (E.c.); 0.5%) was 4.8 mm, the “Zone of Inhibition” value ([3]; 0.05%) was 1.8 mm and the “Zone of Inhibition” value ([3]; 0.1%) was 4.3 mm. For the same molecule, the Zone of Inhibition ([4]; 1.0% by weight) was “slight”, the Zone of Inhibition ([4]; 5.0% by weight) was 1 mm and the “resistant bacterial colonies on plates” value [5] was “ability to suppress all species and not permit the growth of antibiotic resistant species”. The MIC (Candida albicans (yeast)) was 0.5 µg/mL (≈ 1.98 µM), the MIC (Aspergillus niger) was 0.5 µg/mL (≈ 1.98 µM) and the MIC (Escherichia coli) was 16 µg/mL (≈ 63.5 µM). The “Zone of Inhibition” value ([6]; 0.05%) was 0 mm, the “Zone of Inhibition” value ([6]; 0.1%) was 0 mm and the “Zone of Inhibition” value ([6]; 0.5%) was 5.3 mm. The “bacteriocide activity compared with the best commercial antibiotics” value (S.a.; PVC and silicone films, Table E) was “essential equivalency”, the Zones (S.a.; 1.0%) was 20.3 mm and the Zones (S.a.; 5.0%) was 20.3 mm. For the same molecule, the Zones (S.a.; .20%) was 17.8 mm, the “Zone of Inhibition” value (S.a.; Conc. 10) was 0.8 mm and the “Zone of Inhibition” value (S.a.; Conc. 100) was 6.8 mm. The “Zone of Inhibition” value (S.a.; Conc. 1000) was 16.3 mm, the “overgrowth of plates by fungi” value (fungi) was “clean” and the “efficacy in resisting sessile colonization” value [7] was “resisting sessile colonization by bacteria or fungi”. For the same molecule, the Agar culture ([7]; 0.05% by weight) was “+2”, the “Visual Examination” value ([7]; 0.05% by weight) was “slight slime” and the Agar culture ([7]; 0.1% by weight) was “+1”. The “Visual Examination” value ([7]; 0.1% by weight) was “clean”, the Agar culture ([7]; 0.5% by weight) was 0 and the “Visual Examination” value ([7]; 0.5% by weight) was “clean”. For the same molecule, the Agar culture ([7]; 1.0% by weight) was 0, the “Visual Examination” value ([7]; 1.0% by weight) was “clean” and the MIC (Aureobasidium pullulans) was 0.5 µg/mL (≈ 1.98 µM). The “Zone of Inhibition” value (Aspergillis niger (A.n.) [8]; 0.05%) was 0 mm, the “Zone of Inhibition” value (Aspergillis niger (A.n.) [8]; 0.1%) was 0 mm and the “Zone of Inhibition” value (Aspergillis niger (A.n.) [8]; 0.5%) was 5.3 mm. For the same molecule, the MIC (Pseudomonas aeruginosa) was 62 µg/mL (≈ 246 µM), the solubility (Solubility in H2O) was 91 µg/mL (≈ 361 µM) and the Zones (P.a.; 1.0%) was 3.3 mm. For the same molecule, the Zones (P.a.; 5.0%) was 3.3 mm, the Zones (P.a.; .20%) was 0.8 mm and the Agar culture (sessile colonization; 0.05%) was “+3”. For the same molecule, the “Visual Observation” value (sessile colonization; 0.05%) was “slime covered”, the Agar culture (sessile colonization; 0.1%) was “+1” and the “Visual Observation” value (sessile colonization; 0.1%) was “slight slime layer”. For the same molecule, the Agar culture (sessile colonization; 0.5%) was “trace”, the “Visual Observation” value (sessile colonization; 0.5%) was “clean” and the Agar culture (sessile colonization; 1.0%) was 0. For the same molecule, the “Visual Observation” value (sessile colonization; 1.0%) was “clean” and the “efficacy in resisting sessile colonization” value (sessile colonization; treated polyvinyl chloride, compared to untreated control) was “resisting sessile colonization, particularly as compared to untreated control”.

— patent US4542169A, “Biomedical devices containing isothiazolones to control bacteria growth” (Rohm and Haas Company, priority 1983, dated 1985)
